Data taken from ChEMBL document CHEMBL6092154, “Design, synthesis, and evaluation of a novel TRAIL-activated HDAC6 inhibitor for the treatment of pulmonary fibrosis” (Bioorg Med Chem, 2024).
Activity calls are given as the source filed them. No cut-off for these calls is given here.

Tests used:
[1] = biological target: T1, Protein deacetylase HDAC6 (Homo sapiens) (UniProt Q9UBN7); experiment: Inhibition of HDAC6 in human RPMI-8226 cells assessed as increase in acetylated histone H3 level at 0.25 to 1 uM incubated for 24 hrs by western blot analysis; assay type: cell-based; details: dose 0.25-1 µM
T1 sequence (whole entry): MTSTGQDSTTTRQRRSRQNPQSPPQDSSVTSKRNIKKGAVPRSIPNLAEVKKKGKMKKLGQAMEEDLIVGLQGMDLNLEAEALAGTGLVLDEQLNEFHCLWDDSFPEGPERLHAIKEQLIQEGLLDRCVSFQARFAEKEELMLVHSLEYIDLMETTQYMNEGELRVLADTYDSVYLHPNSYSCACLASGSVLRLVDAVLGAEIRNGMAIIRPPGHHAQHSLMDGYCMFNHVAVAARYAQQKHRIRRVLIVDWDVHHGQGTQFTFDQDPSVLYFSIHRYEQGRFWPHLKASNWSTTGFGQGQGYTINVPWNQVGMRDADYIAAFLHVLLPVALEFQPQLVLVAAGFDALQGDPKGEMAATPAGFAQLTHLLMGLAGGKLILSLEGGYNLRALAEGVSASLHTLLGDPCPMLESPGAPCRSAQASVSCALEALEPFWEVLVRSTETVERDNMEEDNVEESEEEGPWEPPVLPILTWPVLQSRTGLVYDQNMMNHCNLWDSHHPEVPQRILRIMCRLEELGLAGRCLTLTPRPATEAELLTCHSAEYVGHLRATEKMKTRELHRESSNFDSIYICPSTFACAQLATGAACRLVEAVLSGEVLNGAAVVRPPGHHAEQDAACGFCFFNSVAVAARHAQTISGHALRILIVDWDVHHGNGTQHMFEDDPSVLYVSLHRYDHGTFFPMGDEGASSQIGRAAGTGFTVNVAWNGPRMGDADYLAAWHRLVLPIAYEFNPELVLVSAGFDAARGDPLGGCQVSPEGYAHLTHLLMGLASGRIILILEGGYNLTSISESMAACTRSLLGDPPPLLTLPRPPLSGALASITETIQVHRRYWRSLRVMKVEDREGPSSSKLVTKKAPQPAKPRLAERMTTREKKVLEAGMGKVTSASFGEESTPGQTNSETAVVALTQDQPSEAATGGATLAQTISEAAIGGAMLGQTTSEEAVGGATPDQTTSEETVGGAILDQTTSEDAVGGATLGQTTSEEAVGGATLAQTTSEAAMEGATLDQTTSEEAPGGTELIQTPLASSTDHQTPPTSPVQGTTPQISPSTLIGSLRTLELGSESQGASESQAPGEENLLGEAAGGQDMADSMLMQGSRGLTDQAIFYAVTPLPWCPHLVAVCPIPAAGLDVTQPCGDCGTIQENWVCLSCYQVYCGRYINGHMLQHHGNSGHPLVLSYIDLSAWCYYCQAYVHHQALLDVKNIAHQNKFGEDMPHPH

[2] = biological target: T1, Protein deacetylase HDAC6 (Homo sapiens); experiment: Inhibition of HDAC6 in human RPMI-8226 cells assessed as increase in acetylated histone H4 level at 1 uM incubated for 24 hrs by western blot analysis; assay type: cell-based
RPMI-8226 = experiment: Increase in TRAIL protein expression in human RPMI-8226 cells at 0.5 uM incubated for 24 hrs by western blot analysis; assay type: functional, cell-based
Histone deacetylase 3 = Histone deacetylase 3 (Homo sapiens, UniProt O15379); experiment: Inhibition of HDAC3 (unknown origin) at 1 uM incubated for 30 mins by fluorometric analysis
NIH3T3 = experiment: Antiproliferative activity against mouse NIH/3T3 cells assessed as inhibition of cell growth incubated for 24 to 48 hrs by CCK8 assay; assay type: functional, cell-based
[3] = biological target: T1, Protein deacetylase HDAC6 (Homo sapiens); experiment: Inhibition of HDAC6 (unknown origin) at 1 uM incubated for 30 mins by fluorometric analysis
Mus musculus [4] = experiment: Anti-pulmonary fibrosis activity in bleomycin-induced idiopathic pulmonary fibrosis C57BL/6J mouse model assessed as decrease in lung damage by measuring decrease in inflammatory cell infiltration in lungs at 25 to 50 mg/kg, ig administered daily via gavage and measured on day 14 by Masson's trichrome staining based analysis; assay type: functional, organism-based; details: dose 25-50 mg/kg, time 14.0 day
Mus musculus [5] = experiment: Anti-pulmonary fibrosis activity in bleomycin-induced idiopathic pulmonary fibrosis C57BL/6J mouse model assessed as decrease in collagen I protein expression in lung at 50 mg/kg, ig administered daily via gavage measured after 14 days by western blot analysis; assay type: functional, organism-based; details: time 14.0 day
[6] = Toxicity against bleomycin-induced pulmonary fibrosis C57BL/6J mouse model assessed as effect on kidney morphological changes at 25 to 50 mg/kg, ig administered daily via gavage and measured on day 14 by Hematoxylin-Eosin staining based analysis; assay type: organism-based; details: in vivo, po, 336 h, dose 25-50 mg/kg, time 14 day
[7] = Toxicity against silicosis C57BL/6J mouse model assessed as effect on kidney morphological changes at 50 mg/kg, ig administered daily via gavage and measured on day 28 by Hematoxylin-Eosin staining based analysis; assay type: organism-based; details: in vivo, po, 672 h, time 28 day
[8] = biological target: T2, Protein deacetylase HDAC6 (Homo sapiens, UniProt Q9UBN7); experiment: Inhibition of HDAC6 (unknown origin) incubated for 30 mins by fluorometric analysis
T2 sequence (Q9UBN7 whole entry): T1 sequence (whole entry)

Sequence of Histone deacetylase 3 (O15379 whole entry): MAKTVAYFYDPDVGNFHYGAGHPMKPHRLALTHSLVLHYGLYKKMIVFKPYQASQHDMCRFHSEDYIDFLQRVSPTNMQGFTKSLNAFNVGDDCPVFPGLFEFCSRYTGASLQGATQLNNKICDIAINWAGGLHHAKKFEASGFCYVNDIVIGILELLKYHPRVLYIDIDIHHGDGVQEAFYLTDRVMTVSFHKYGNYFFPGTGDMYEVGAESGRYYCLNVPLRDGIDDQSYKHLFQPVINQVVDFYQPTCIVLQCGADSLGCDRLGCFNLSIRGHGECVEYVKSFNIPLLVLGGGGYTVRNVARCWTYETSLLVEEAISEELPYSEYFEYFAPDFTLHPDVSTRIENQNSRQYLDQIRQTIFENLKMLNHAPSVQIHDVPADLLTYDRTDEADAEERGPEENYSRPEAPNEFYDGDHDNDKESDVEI

- inhibition [1]: Active; Less Affected
- inhibition (Histone deacetylase 3): 50.8%
- inhibition [3]: 94.8%
- IC50 [8]: 42.9 nM
SMILES: O=C(NO)c1ccc(CN2C(=O)C3=C(CCN(Cc4cccc(Cl)c4)C3)N3CCN=C23)cc1
- inhibition [2]: Active; Intensity Of Increase Slightly Lower Than Positive Drug, Acy-1215
- Activity (RPMI-8226): Active; Comparable Activity To 1 Um Compound Iic And Greater Activity Compared To 1 Um Chidamide, Acy-1215
- IC50 (NIH3T3): 890 nM
- Activity (Mus musculus [4]): Active
- Activity (Mus musculus [5]): Active; Superior Activity Compared To Positive Drug, Acy-1215
- Activity [6]: Non-toxic
- Activity [7]: Non-toxic
